Consider eight compounds from ChEMBL document CHEMBL4304793, “Evaluation of a Series of β-Secretase 1 Inhibitors Containing Novel Heteroaryl-Fused-Piperazine Amidine Warheads” (ACS Med Chem Lett, 2019).

A short description of this series: Dissociation constant, pKa of compound. It is filed as physicochemical.
In turn, `C[C@@]1(c2cc(NC(=O)c3ccc(C#N)cn3)ccc2F)Cn2cccc2C(N)=N1` came in with a pKa of 10.3.
In turn, `C[C@@]1(c2cc(NC(=O)c3ccc(C#N)cn3)ccc2F)Cn2ccnc2C(N)=N1` showed a pKa of 8.2.
The value for `C[C@@]1(c2cc(NC(=O)c3ccc(C#N)cn3)ccc2F)Cn2cncc2C(N)=N1` was 9; that for `C[C@@]1(c2cc(NC(=O)c3ccc(C#N)cn3)ccc2F)Cn2cnnc2C(N)=N1` was 6.4.
The value for `C[C@@]1(c2cc(NC(=O)c3ccc(C#N)cn3)ccc2F)Cn2nncc2C(N)=N1` was 7.1.
`C[C@@]1(c2cccc(NC(=O)c3ccc(C#N)cn3)c2)Cn2nccc2C(N)=N1` showed a pKa of 8.5.
The value for `C[C@@]1(c2cc(NC(=O)c3ccc(C#N)cn3)ccc2F)Cn2nnnc2C(N)=N1` was 5.1; that for `C[C@@]1(c2cc(NC(=O)c3ccc(C#N)cn3)ccc2F)Cn2ncnc2C(N)=N1` was 6.5.
